Values joined by “and” are separate entries in the source; they are usually repeats but may differ in a detail not shown here. Equal entries are not always repeated.
What was measured:
CEM cells [1] = test: Targeted LC-MS/MS-MRM of de novo and salvage dCTP biosynthesis (nucleotide pools and newly replicated DNA); assay type: cell-based, human; design: key to Substrate utilization Glucose / Substrate utilization dC: ↓: partial decrease/inhibition; ↓↓↓: nearly complete inhibition; ↑: increase; ⟷: no change
Protocol: Cells were transferred into RPMI-1640 without glucose and supplemented with 10% dialyzed FBS (Gibco) containing the following labeled substrates: precursors for de novo [U-^13C6]glucose (Sigma-Aldrich, 389374) at 11 mM; precursors for purine salvage [U-^13C10,^15N5]dA (Cambridge Isotopes, CIL 3896), [^15N5]dA (Cambridge Isotopes, NLM-3895) and [^15N5]dG (Cambridge Isotopes, NLM-3899) at 5 µM or as indicated; and precursors for pyrimidine salvage: [U-^13C9,^15N3]dC (Silantes, 124603602) and [U-^13C10,^15N2]dT (Cambridge Isotopes, CNLM-3902) at 5 µM and [^15N2]orotate (Cambridge Isotopes, NLM-1048) at indicated concentrations. The cells were incubated for 12 h or as indicated before sample collection and processing.
The rates of dCTP incorporation into the DNA were determined using linear regression with procedure GLM in SAS (v. 9.4). DNA % label was transformed using a shifted log addition of 1 due to the presence of zeros in the data set. Rates were calculated using the slope of the regression line for the log transformed data and are presented in the table with the associated standard errors, along with the ratio between the rate of incorporation into DNA by the de novo and salvage pathways (Table 1).
Cell cycle synchronization. Cells were treated with a CDK4/6 inhibitor, Pablociclib or PD-0332991 (Selleckchem, S1116) for 18 h to synchronize them in the G1 phase. Subsequently, cells were washed twice with PBS containing 2% FBS (Omega Scientific) and released into fresh media. […]
Clinical Microarray Core on an Illumina HiSeq3000 using the SeqCap EZ Exome Enrichment Kit v3.0 (Roche).
Reads were mapped to UCSC hg19 (bwa-mem), deduplicaed (PicardTools), and subjected to base quality score recalibration and realignment around known indels according to the Broad Institute Genome Analysis Toolkit (GATK) Best Practices v3.0. Variants in genes associated with nucleotide biosynthesis were identified using the GATK HaplotypeCaller, and annotated with Oncotator (http://portals.broadinstitute.org/oncotator/). dNTP sample processing. 0.5 – 1 x 10^6 cells were collected into 1.5 mL microcentrifuge tubes and centrifuged (450 x g, 4 min, 4 °C). The supernatant was carefully aspirated and the cells were washed twice with 1 mL of cold PBS, followed each time by centrifugation (450 x g, 4 min 4 °C). The PBS were aspirated.
Thereafter, the pellets were treated with 10 µL of 10% trifluoroacetic acid with internal standards (1 µM […]
s, and incubated on ice for 10 min. 40 µL of 500 mM ammonium acetate, pH = 9.3, with the same internal standard (1 µM [15N3]dCMP and [15N3]dCTP) was then added and the samples were vigorously vortexed again for 30 s. The samples were centrifuged (14,000 x g, 10 min, 4 °C) to remove cell debris. The supernatants (~ 40 µL) were transferred into HPLC injector vials. Stock solutions (10 mM) of rCTP, rCDP, dCMP, dCDP, and dCTP (Sigma Aldrich) were prepared individually in water, and stored at –20 °C before use to generate calibration standards. Calibration standards were prepared and mixed together in water with internal standards (1 µM [15N3]dCMP and [15N3]dCTP) to make working stock concentrations in 100 nM – 100 µM range.
Calibration standards were diluted 10-fold into the same nucleotide extraction solution of 10% TFA/500 mM ammonium acetate (1:4, v/v) with internal standards (1 µM [15N3]dCMP and [15N3]dCTP) to give a final concentration in 10 nM – 10 µM. Nucleotide and calibration samples were processed together to minimize […]
DNA sample processing. Genomic DNA from 0.5 – 1 x 10^4 cells was extracted using the Quick-gDNA MiniPrep kit (Zymo Research, D3021) and hydrolyzed to nucleosides using the DNA Degradase Plus kit (Zymo Research, E2021), following manufacturer-supplied instructions. In the final step of DNA extraction, 50 µL of […]
water was used to elute the DNA into 1.5 mL microcentrifuge tubes. A nuclease solution (5 µL; 10X buffer/DNA Degradase Plus™/water, 2.5/1/1.5, v/v/v) was added to 20 µL of the eluted genomic DNA in an HPLC injector […]
vial. […]

CEM cells [2] = test: Cell cycle analysis of asynchronous cells by flow cytometry (S-phase population, S-phase arrest); assay type: cell-based, human; settings: asynchronous CEM, 12 h, VE-822 1 µM, DI-82 1 µM
Protocol: Cell cycle histograms. Cells were plated at a density of 0.5 x 10^6 cells/mL in respective media or drug treated media. Following 24 h incubation, cells were harvested and washed twice with PBS twice before staining with 0.5 ml of propidium iodide (Calbiochem, #P3566, 1 µg/mL) solution containing Ribonuclease A and 0.3% Triton-X 100. The samples were protected from light before acquisition by flow cytometry.
Cell cycle kinetics and cell cycle progression by intracellular detection of DNA-incorporated 5-ethynyl-2-deoxyuridine (EdU). CEM T-ALL cells were plated at a density of 0.5 x 10^6 cells/mL. Cells were pulsed with 10 µM EdU (Invitrogen) for 1 h, washed twice with PBS, and released in fresh media containing 5 µM deoxyribonucleosides, with and without drugs. Cells were collected at different time points following release in fresh media, and then fixed with 4% paraformaldehyde and permeabilized using saponin perm/wash reagent (Invitrogen). Cells were then stained with azide-Alexa Fluor 647 by Click reaction according to manufacturer’s protocol (Invitrogen; Click-iT EdU Flow cytometry kit, #C10634). […]

[3] = CEM 12 h, 1 uM VE-822, 1 uM DI-82, 500 nM 3-AP, #1-#3
[4] = CEM after release from G1 arrest

## CNCc1ccc(-c2cc(-c3nc(-c4ccc(S(=O)(=O)C(C)C)cc4)cnc3N)on2)cc1 [VE-822]
CEM cells [1]; 12 h time point after release from G1 arrest
  reduction in overall DNA labeling compared to untreated cells: 30%
CEM cells [1]; [3]
  % sum abundance, de novo DNA-C, mass increase in nucleobase +0, in deoxyribose +3: 0.14% and 0.15% and 0.16%
  % sum abundance, de novo DNA-C, mass increase in nucleobase +0, in deoxyribose +4: 0.43% and 0.45% and 0.46%
  % sum abundance, de novo DNA-C, mass increase in nucleobase +0, in deoxyribose +5: 7.38% and 7.69% and 7.03%
  % sum abundance, de novo DNA-C, mass increase in nucleobase +1, in deoxyribose +3: 0.00%
  % sum abundance, de novo DNA-C, mass increase in nucleobase +1, in deoxyribose +4: 0.06% and 0.0569% and 0.066%
  % sum abundance, de novo DNA-C, mass increase in nucleobase +1, in deoxyribose +5: 0.95% and 0.96% and 0.91%
  % sum abundance, de novo DNA-C, mass increase in nucleobase +2, in deoxyribose +4: 0.0654% and 0.0348% and 0.0476%
  % sum abundance, de novo DNA-C, mass increase in nucleobase +2, in deoxyribose +5: 0.64% and 0.67% and 0.62%
  % sum abundance, de novo DNA-C, mass increase in nucleobase +3, in deoxyribose +4: 0.00%
  % sum abundance, de novo DNA-C, mass increase in nucleobase +3, in deoxyribose +5: 0.16% and 0.17% and 0.14%
  % sum abundance, de novo DNA-C, mass increase in nucleobase +4, in deoxyribose +4: 0.00%
  % sum abundance, de novo DNA-C, mass increase in nucleobase +4, in deoxyribose +5: 0.00%
  % sum abundance, salvage DNA-C, mass increase in nucleobase +5, in deoxyribose +0: 0.00%
  % sum abundance, salvage DNA-C, mass increase in nucleobase +5, in deoxyribose +4: 0.00%
  % sum abundance, salvage DNA-C, mass increase in nucleobase +5, in deoxyribose +5: 0.00%
  % sum abundance, salvage DNA-C, mass increase in nucleobase +6, in deoxyribose +0: 0.00%
  % sum abundance, salvage DNA-C, mass increase in nucleobase +6, in deoxyribose +4: 0.00%
  % sum abundance, salvage DNA-C, mass increase in nucleobase +6, in deoxyribose +5: 0.09%
  % sum abundance, salvage DNA-C, mass increase in nucleobase +7, in deoxyribose +0: 0.00%
  % sum abundance, salvage DNA-C, mass increase in nucleobase +7, in deoxyribose +4: 0.06% and 0.07%
  % sum abundance, salvage DNA-C, mass increase in nucleobase +7, in deoxyribose +5: 1.08% and 1.19% and 1.11%
  % sum abundance, unlabeled DNA-C, mass increase in nucleobase +0, in deoxyribose +0: 78.84% and 78.52% and 79.31%
  % sum abundance, unlabeled DNA-C, mass increase in nucleobase +0, in deoxyribose +1: 4.53% and 4.48% and 4.46%
  % sum abundance, unlabeled DNA-C, mass increase in nucleobase +0, in deoxyribose +2: 0.68% and 0.72%
  % sum abundance, unlabeled DNA-C, mass increase in nucleobase +1, in deoxyribose +0: 4.47% and 4.26% and 4.33%
  % sum abundance, unlabeled DNA-C, mass increase in nucleobase +1, in deoxyribose +1: 0.21% and 0.22% and 0.24%
  % sum abundance, unlabeled DNA-C, mass increase in nucleobase +1, in deoxyribose +2: 0.00%
  % sum abundance, unlabeled DNA-C, mass increase in nucleobase +2, in deoxyribose +0: 0.24% and 0.27% and 0.28%
  % sum abundance, unlabeled DNA-C, mass increase in nucleobase +2, in deoxyribose +1: 0.00%
  % sum abundance, unlabeled DNA-C, mass increase in nucleobase +2, in deoxyribose +2: 0.00%
  % sum abundance, unlabeled DNA-C, mass increase in nucleobase +3, in deoxyribose +0: 0.00%
  % sum abundance, unlabeled DNA-C, mass increase in nucleobase +3, in deoxyribose +1: 0.00%
  % sum abundance, unlabeled DNA-C, mass increase in nucleobase +4, in deoxyribose +0: 0.00%
CEM cells [1]; [4]
  De novo: rate of dCTP incorporation into newly replicated DNA (slope ± standard error of regression line): 0.17 ± 0.01 arbitrary unit
  Ratio (salvage/de novo): 0.85
  Salvage: rate of dCTP incorporation into newly replicated DNA (slope ± standard error of regression line): 0.14 ± 0.01 arbitrary unit
CEM cells [1]; after release from G1 arrest
  free dCTP levels or their biosynthetic origins: did not alter
CEM cells [1]; asynchronous CEM, 12 h
  decrease of [13C6]glucose labeling of the rCDP pool: 40%
  reduction of dCK activity (contribution of labeled [13C9,15N3]dC to intracellular dCMP): ~ 33%
CEM cells [1]; summary Fig. 2g, CEM cells
  Substrate utilization Glucose: ↓
  Substrate utilization dC: ↓
CEM cells [2]; + dNTP (10 µM)
  percentage of cell population in S-phase: 37%
CEM cells [2]; – dNTP
  percentage of cell population in S-phase: 42%

— article PMC5556071, “ATR inhibition facilitates targeting of leukemia dependence on convergent nucleotide biosynthetic pathways” (Nature Communications, 2017)
